According to patent publication US12441733B2, “Substituted 2,4-dioxotetrahydropyrimidines as intermediates in the synthesis of bruton's tyrosine kinase inhibitors” (Novartis AG, priority 2018, dated 2025):

Target: T1, IKZF3-GFP (Homo sapiens, UniProt Q96SW2+Q9UKT9)
T1 construct: expressed in transfected cells; host or cells: HEK293A (Invitrogen R70507), lentiviral transduction with pLenti6-IKZF3-GFP-Ires-RFP, blasticidin selection
Assay: IKZF3-GFP protein abundance flow cytometry assay in HEK293A cells
Assay type: cell-based
Details: HEK293A IKZF3-GFP-iresRFP cells, 24 h

T1 sequence (Q9UKT9 whole entry): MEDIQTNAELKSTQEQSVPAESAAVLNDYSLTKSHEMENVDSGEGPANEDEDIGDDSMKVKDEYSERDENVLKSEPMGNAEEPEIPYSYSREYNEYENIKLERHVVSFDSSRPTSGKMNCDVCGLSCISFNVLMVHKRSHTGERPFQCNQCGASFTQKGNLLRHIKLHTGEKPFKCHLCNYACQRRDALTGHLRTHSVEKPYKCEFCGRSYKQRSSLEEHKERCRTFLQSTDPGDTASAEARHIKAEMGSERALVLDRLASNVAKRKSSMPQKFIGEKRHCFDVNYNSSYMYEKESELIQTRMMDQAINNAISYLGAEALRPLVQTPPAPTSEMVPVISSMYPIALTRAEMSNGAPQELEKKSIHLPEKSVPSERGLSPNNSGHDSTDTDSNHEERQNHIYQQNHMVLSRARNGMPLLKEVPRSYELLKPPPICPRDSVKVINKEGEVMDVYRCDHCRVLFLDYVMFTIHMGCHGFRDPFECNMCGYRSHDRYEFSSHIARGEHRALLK
T1 sequence (Q96SW2 whole entry): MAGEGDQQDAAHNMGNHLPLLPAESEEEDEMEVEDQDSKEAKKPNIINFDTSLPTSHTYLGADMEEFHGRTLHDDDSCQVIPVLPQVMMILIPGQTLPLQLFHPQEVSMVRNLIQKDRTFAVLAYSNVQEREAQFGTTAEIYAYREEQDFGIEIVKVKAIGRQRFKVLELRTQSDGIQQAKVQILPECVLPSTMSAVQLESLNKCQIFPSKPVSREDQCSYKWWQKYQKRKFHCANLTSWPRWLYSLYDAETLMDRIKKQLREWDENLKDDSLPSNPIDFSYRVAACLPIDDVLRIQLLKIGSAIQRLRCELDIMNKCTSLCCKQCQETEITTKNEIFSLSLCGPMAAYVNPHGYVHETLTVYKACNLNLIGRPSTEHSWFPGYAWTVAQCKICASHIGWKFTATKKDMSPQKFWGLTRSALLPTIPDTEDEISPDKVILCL
T1 sequence (Q16531 whole entry partner): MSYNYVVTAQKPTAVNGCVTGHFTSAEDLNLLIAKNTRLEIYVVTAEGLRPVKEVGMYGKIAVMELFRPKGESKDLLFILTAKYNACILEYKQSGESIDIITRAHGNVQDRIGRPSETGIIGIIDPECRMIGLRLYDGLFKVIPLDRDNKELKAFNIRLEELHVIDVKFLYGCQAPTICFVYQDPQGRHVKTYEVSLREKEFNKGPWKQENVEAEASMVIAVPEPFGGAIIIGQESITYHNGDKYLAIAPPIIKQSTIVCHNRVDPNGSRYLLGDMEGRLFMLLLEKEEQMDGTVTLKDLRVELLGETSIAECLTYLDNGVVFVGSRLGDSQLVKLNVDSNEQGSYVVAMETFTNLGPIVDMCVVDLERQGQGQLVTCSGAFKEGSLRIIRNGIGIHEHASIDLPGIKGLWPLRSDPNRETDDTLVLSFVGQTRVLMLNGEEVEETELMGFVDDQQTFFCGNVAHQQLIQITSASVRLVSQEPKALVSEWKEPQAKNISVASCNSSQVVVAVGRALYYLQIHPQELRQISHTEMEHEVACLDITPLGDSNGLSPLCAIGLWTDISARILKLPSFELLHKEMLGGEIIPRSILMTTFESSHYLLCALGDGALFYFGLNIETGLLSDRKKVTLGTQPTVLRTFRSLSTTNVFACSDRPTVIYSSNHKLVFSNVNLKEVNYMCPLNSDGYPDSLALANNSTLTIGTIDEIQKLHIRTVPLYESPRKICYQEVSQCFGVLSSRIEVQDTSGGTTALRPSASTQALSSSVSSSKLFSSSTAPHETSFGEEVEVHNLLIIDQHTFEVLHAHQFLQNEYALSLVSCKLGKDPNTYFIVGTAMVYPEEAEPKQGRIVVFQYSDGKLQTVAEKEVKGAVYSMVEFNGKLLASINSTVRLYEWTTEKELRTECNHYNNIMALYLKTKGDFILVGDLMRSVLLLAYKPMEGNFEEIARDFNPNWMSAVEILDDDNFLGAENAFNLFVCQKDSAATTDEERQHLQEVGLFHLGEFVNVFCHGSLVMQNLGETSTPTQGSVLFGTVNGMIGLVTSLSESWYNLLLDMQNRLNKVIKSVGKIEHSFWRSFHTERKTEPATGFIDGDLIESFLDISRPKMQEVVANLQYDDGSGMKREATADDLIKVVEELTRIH

DC50 (GFP signal by flow cytometry): > 5.5 µM | IKZF3 deg Amax (% protein remaining at maximum degradation): 99.8%
SMILES: COc1ccc(C(=O)N2CCC3(CCN(CCc4ccc(-c5cc6c(-c7cc(F)cc(NC(=O)c8ccc(C(C)(C)O)cc8F)c7C)ncnc6[nH]5)cc4)CC3)CC2)cc1N1CCC(=O)NC1=O [Compound 31, N-(3-(6-(4-(2-(9-(3-(2,4-Dioxotetrahydropyrimidin-1(2H)-yl)-4-methoxybenzoyl)-3,9-diazaspiro[5.5]undecan-3-yl)ethyl)phenyl)-7H-pyrrolo[2,3-d]pyrimidin-4-yl)-5-fluoro-2-methylphenyl)-2-fluoro-4-(2-hydroxypropan-2-yl)benzamide]
